Experimental data from patent US20070021434A1, “NON-NUCLEOSIDE ANTI-HEPACIVIRUS AGENTS AND USES THEREOF” (Migenix Inc., priority 2005, published 2007).

Biological target: HCV RdRp (NS5B) (UniProt P26663)
Type: biochemical, hepatitis C virus

Chain of HCV RdRp (NS5B) (P26663 whole entry, looked up): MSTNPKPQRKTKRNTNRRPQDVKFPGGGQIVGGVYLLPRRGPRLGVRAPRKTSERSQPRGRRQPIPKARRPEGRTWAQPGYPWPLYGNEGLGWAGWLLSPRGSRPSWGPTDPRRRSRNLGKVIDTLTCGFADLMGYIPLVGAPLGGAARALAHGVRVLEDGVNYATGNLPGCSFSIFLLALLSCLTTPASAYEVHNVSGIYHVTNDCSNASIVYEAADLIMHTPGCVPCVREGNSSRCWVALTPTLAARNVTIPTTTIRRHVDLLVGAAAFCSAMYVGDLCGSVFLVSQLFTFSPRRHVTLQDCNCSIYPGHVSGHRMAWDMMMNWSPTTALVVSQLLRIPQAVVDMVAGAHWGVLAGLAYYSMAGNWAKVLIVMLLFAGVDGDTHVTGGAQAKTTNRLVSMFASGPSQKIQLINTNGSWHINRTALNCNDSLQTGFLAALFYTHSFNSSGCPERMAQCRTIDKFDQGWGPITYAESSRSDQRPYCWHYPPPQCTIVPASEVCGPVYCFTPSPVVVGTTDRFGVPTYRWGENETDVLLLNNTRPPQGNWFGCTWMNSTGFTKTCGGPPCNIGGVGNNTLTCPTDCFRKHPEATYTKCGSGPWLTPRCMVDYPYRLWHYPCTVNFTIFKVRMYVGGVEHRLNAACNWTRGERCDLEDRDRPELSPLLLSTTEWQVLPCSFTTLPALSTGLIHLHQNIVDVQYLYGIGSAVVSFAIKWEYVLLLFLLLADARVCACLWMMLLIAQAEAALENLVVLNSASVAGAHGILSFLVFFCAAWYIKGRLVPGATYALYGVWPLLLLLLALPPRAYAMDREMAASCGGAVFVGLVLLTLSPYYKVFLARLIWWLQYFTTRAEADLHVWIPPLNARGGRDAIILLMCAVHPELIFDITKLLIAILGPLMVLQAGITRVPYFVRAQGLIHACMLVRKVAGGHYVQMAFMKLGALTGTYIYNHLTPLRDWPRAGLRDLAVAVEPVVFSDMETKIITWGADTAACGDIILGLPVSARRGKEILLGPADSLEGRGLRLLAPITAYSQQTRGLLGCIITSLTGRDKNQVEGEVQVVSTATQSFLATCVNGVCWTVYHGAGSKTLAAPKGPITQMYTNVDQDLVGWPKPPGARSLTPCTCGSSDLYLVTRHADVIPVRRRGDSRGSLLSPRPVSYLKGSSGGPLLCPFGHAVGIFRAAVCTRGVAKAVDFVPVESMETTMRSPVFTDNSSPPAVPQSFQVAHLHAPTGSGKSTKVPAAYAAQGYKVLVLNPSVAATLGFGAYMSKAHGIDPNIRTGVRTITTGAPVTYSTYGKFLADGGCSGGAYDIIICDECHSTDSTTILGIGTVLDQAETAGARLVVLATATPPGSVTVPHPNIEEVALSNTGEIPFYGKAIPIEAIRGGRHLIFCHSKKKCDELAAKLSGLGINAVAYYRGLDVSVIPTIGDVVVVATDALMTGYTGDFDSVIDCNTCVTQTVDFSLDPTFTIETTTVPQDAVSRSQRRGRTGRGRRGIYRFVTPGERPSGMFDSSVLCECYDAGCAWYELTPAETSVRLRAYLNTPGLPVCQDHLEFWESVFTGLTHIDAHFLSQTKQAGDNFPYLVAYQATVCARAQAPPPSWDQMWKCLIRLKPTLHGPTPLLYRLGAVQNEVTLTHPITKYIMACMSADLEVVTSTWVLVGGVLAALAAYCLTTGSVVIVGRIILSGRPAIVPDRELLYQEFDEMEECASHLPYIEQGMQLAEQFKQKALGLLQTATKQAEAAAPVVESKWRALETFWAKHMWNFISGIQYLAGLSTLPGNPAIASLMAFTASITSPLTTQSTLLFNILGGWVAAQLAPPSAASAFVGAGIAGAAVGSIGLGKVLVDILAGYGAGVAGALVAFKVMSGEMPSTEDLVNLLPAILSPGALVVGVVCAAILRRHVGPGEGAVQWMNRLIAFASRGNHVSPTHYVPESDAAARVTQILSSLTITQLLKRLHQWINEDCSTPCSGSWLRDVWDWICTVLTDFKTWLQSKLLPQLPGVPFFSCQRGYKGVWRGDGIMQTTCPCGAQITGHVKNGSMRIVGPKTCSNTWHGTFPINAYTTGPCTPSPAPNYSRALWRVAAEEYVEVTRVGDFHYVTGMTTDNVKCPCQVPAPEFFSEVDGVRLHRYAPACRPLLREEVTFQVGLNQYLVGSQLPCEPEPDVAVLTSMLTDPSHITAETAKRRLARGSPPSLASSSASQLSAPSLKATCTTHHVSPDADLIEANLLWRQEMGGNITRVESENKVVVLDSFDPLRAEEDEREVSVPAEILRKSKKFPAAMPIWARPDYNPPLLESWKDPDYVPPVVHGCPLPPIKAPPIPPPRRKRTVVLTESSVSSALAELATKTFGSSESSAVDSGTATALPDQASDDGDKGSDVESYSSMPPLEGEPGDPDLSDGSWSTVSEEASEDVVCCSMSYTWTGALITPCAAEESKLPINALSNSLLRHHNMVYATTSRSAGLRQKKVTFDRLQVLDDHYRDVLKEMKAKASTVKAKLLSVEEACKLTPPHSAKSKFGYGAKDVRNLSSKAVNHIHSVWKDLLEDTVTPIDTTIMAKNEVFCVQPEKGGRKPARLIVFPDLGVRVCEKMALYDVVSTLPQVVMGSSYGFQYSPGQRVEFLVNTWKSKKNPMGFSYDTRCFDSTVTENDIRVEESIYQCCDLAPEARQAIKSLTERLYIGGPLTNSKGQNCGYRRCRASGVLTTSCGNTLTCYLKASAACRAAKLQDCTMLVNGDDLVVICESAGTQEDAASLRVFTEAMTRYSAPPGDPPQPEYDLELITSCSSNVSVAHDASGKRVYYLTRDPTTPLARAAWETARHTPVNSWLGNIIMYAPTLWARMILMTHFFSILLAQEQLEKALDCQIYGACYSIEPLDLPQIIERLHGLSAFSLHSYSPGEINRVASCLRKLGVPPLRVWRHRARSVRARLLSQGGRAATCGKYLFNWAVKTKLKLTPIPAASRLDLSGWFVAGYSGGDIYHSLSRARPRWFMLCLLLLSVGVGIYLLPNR

Structure (SMILES) | IC50 [µM]
Cc1ccc(NC(=O)[C@H](CCCCN)NC(=O)Nc2ccc(OCc3ccc(F)c(F)c3)cc2)cc1 [Compound 288, (S)-6-AMINO-2-{3-[4-(3,4-DIFLUORO-BENZYLOXY)-PHENYL]-UREIDO}-HEXANOIC ACID P-TOLYLAMIDE] | 10 to 50
Cc1ccc(NC(=O)[C@H](CCCCN)NC(=O)COc2cccc(Cl)c2)cc1 [Compound 330, (S)-^6-AMINO-2-[2-(^3-CHLORO-PHENOXY)-ACETYLAMINO]-HEXANOIC ACID P-TOLYLAMIDE] | > 50
Cc1ccc(NC(=O)C(CCCCN)NC(=O)C(N)Cc2cccc3ccccc23)cc1 [Compound 61, (S,R)-6-AMINO-2-(2-AMINO-3-NAPHTHALEN-1-YL-PROPIONYLAMINO)-HEXANOIC ACID P-TOLYLAMIDE] | > 50
Cc1ccc(NC(=O)[C@H](CCCCN)NC(=O)CNc2ccccc2F)cc1 [Compound 359, (S)-6-AMINO-2-[2-(2-FLUORO-PHENYLAMINO)-ACETYLAMINO]-HEXANOIC ACID P-TOLYLAMIDE] | > 50
Cc1ccc(NC(=O)C(Cc2cnc[nH]2)NC(=O)OCC2c3ccccc3-c3ccccc32)cc1 [Compound 384, (R)-[2-(3H-IMIDAZOL-4-YL)-1-P-TOLYLCARBAMOYL-ETHYL]-CARBAMIC ACID 9H-FLUOREN-9-YLMETHYL ESTER] | > 50
Cc1ccc(NC(=O)C(CNC(=O)CN)NC(=O)OCC2c3ccccc3-c3ccccc32)cc1 [Compound 115, (S)-[2-(2-AMINO-ACETYLAMINO)-1-P-TOLYLCARBAMOYL-ETHYL]-CARBAMIC ACID 9H-FLUOREN-9-YLMETHYL ESTER] | 10 to 50
CCNCC(=O)N1CCN(C(=O)OCC2c3ccccc3-c3ccccc32)C(CC(=O)Nc2ccc(C)cc2)C1 (centres unmarked) [Compound 187, 4-(2-ETHYLAMINO-ACETYL)-2-(P-TOLYLCARBAMOYL-METHYL)-PIPERAZINE-1-CARBOXYLIC ACID 9H-FLUOREN-9-YLMETHYL ESTER] | 10 to 50
Cc1ccc(NC(=O)C2CC(O)CN2C(=O)OCC2c3ccccc3-c3ccccc32)cc1 [Compound 87, (4R,S)-4-HYDROXY-2-P-TOLYLCARBAMOYL-PYRROLIDINE-1-CARBOXYLIC ACID 9H-FLUOREN-9-YLMETHYL ESTER] | > 50
Cc1ccc(NC(=O)[C@H](CCCCN)NC(=O)Nc2ccc(OCc3ccc(F)cc3)cc2)cc1 [Compound 250, (S)-6-AMINO-2-{3-[4-(4-FLUORO-BENZYLOXY)-PHENYL]-UREIDO}-HEXANOIC ACID P-TOLYLAMIDE] | 10 to 50
Cc1ccc(COc2ccc(NC(=O)NC(CCCCN)C(=O)Nc3ccc(C)cc3)cc2)cc1 [Compound 301, (S)-6-AMINO-2-{3-[4-(4-METHYL-BENZYLOXY)-PHENYL]-UREIDO}-HEXANOIC ACID P-TOLYLAMIDE] | > 50
NCCCC[C@H](NC(=O)Nc1ccc(OCc2ccccc2)cc1)C(=O)OCCN [Compound 259, (S)-6-AMINO-2-[3-(4-BENZYLOXY-PHENYL)-UREIDO]-HEXANOIC ACID (2-AMINO-ETHYL)-ESTER] | > 50
Cc1ccc(NC(=O)C(CCCCN)NC(=O)CN(C)Cc2ccccc2)cc1 [Compound 353, (S)-6-AMINO-2-[2-(BENZYL-METHYL-AMINO)-ACETYLAMINO]-HEXANOIC ACID P-TOLYLAMIDE] | > 50
Cc1ccc(NC(=O)C(CCCCN)NC(=O)c2c(C)ccc3ccccc23)cc1 [Compound 63, (S)-2-METHYL-NAPHTHALENE-1-CARBOXYLIC ACID (5-AMINO-1-P-TOLYLCARBAMOYL-PENTYL)-AMIDE] | > 50
NCCCC[C@H](NC(=O)OCC1c2ccccc2-c2ccccc21)C(=O)Nc1cc(-c2ccccc2)n[nH]1 [Compound 267, (S)-[5-AMINO-1-(5-PHENYL-2H-PYRAZOL-3-YLCARBAMOYL)-PENTYL]-CARBAMIC ACID 9H-FLUOREN-9-YLMETHYL ESTER] | 10 to 50
NCCCC[C@H](NC(=O)OCC1c2ccccc2-c2ccccc21)C(=O)Nc1ccc(C2CCCCC2)cc1 [Compound 107, (S)-[5-AMINO-1-(4-CYCLOHEXYL-PHENYLCARBAMOYL)-PENTYL]-CARBAMIC ACID 9H-FLUOREN-9-YLMETHYL ESTER] | < 10
Cc1ccc(NC(=O)C(CCCCN)NC(=O)CNCCc2c[nH]c3ccccc23)cc1 [Compound 335, (S)-6-AMINO-2-{2-[2-(1H-INDOL-3-YL)-ETHYLAMINO]-ACETYLAMINO}-HEXANOIC ACID P-TOLYLAMIDE] | > 50
COc1ccccc1CNCC(=O)N[C@@H](CCCCN)C(=O)Nc1ccc(C)cc1 [Compound 341, (S)-6-AMINO-2-[2-(2-METHOXY-BENZYLAMINO)-ACETYLAMINO]-HEXANOIC ACID P-TOLYLAMIDE] | > 50
NCCCC[C@@H](NC(=O)Nc1cccc2ccccc12)C(=O)Nc1ccc(CN(C(=O)c2ccco2)C2CCCCC2)cc1 [Compound 32, (R)-FURAN-2-CARBOXYLIC ACID {4-[6-AMINO-2-(3-NAPHTHALEN-1-YL-UREIDO)-HEXANOYLAMINO]-BENZYL}-CYCLOHEXYL-AMIDE] | > 50
NCCCC[C@@H](NC(=O)NCc1ccc(Cl)cc1)C(=O)Nc1ccc(C2CCCCC2)cc1 [Compound 164, (R)-6-AMINO-2-[3-(4-CHLORO-BENZYL)-UREIDO]-HEXANOIC ACID (4-CYCLOHEXYL-PHENYL)-AMIDE] | < 10

Structure (SMILES) | IC50 [µM]
Cc1ccc(CNC(=O)NC(CCCCN)C(=O)Nc2ccc(C)cc2)cc1 [Compound 136, (S)-6-AMINO-2-[3-(4-METHYL-BENZYL)-UREIDO]-HEXANOIC ACID P-TOLYLAMIDE] | > 50
NCCCC[C@H](NC(=O)c1cccc2ccccc12)C(=O)Nc1ccc(CN(C(=O)c2ccco2)C2CCCCC2)cc1 [Compound 24, (S)-FURAN-2-CARBOXYLIC ACID (4-{6-AMINO-2-[(NAPHTHALENE-1-CARBONYL)-AMINO]-HEXANOYLAMINO}-BENZYL)-CYCLOHEXYL-AMIDE] | 10 to 50
Cc1ccc(CNCC(=O)NC(CCCCN)C(=O)Nc2ccc(C)cc2)cc1 [Compound 340, (S)-6-AMINO-2-[2-(4-METHYL-BENZYLAMINO)-ACETYLAMINO]-HEXANOIC ACID P-TOLYLAMIDE] | > 50
Cc1ccc(NC(=O)C(Cc2ccc(CN)cc2)NC(=O)OCC2c3ccccc3-c3ccccc32)cc1 [Compound 129, (S)-[2-(4-AMINOMETHYL-PHENYL)-1-P-TOLYLCARBAMOYL-ETHYL]-CARBAMIC ACID 9H-FLUOREN-9-YLMETHYL ESTER] | < 10
NCCCCN(CC(=O)Nc1cccc2[nH]ccc12)C(=O)Nc1ccc(OCc2ccccc2)cc1 [Compound 281, 2-[1-(4-AMINO-BUTYL)-3-(4-BENZYLOXY-PHENYL)-UREIDO]-NR-(1H-INDOL-4-YL)-ACETAMIDE] | > 50
CCCCOc1ccc(NC(=O)N[C@@H](CCCCN)C(=O)Nc2ccc(C)cc2)cc1 [Compound 244, (S)-6-AMINO-2-[3-(4-BUTOXY-PHENYL)-UREIDO]-HEXANOIC ACID P-TOLYLAMIDE] | > 50
NCCCC[C@H](NC(=O)OCC1c2ccccc2-c2ccccc21)C(=O)Nc1ccc(F)cc1 [Compound 44, (S)-[5-AMINO-1-(4-FLUORO-PHENYLCARBAMOYL)-PENTYL]-CARBAMIC ACID 9H-FLUOREN-9-YLMETHYL ESTER] | > 50
Cc1ccc(NC(=O)C(CCCCN)NC(=O)OCc2ccccc2)cc1 [Compound 403, (S)-(5-AMINO-1-P-TOLYLCARBAMOYL-PENTYL)-CARBAMIC ACID BENZYL ESTER] | > 50
NCCCC[C@H](NC(=O)[C@@H](N)Cc1c[nH]c2ccccc12)C(=O)Nc1ccc(CN(C(=O)c2ccco2)C2CCCCC2)cc1 [Compound 23, (S)-FURAN-2-CARBOXYLIC ACID (4-{6-AMINO-2-[2-(S)-AMINO-3-(1H-INDOL-3-YL)-PROPIONYLAMINO]-HEXANOYLAMINO}-BENZYL)-CYCLOHEXYL-AMIDE] | 10 to 50
CC(=O)Nc1ccc(NC(=O)[C@H](CCCCN)NC(=O)OCC2c3ccccc3-c3ccccc32)cc1 [Compound 230, (S)-[1-(4-ACETYLAMINO-PHENYLCARBAMOYL)-5-AMINO-PENTYL]-CARBAMIC ACID 9H-FLUOREN-9-YLMETHYL ESTER] | > 50
Cc1ccc(NC(=O)[C@H](CCCCN)NC(=O)CNc2cccc(F)c2)cc1 [Compound 360, (S)-6-AMINO-2-[2-(3-FLUORO-PHENYLAMINO)-ACETYLAMINO]-HEXANOIC ACID P-TOLYLAMIDE] | 10 to 50
Cc1ccc(NC(=O)[C@H](CCCCN)NC(=O)NCc2ccc(Cl)c(Cl)c2)cc1 [Compound 140, (S)-6-AMINO-2-[3-(3,4-DICHLORO-BENZYL)-UREIDO]-HEXANOIC ACID P-TOLYLAMIDE] | 10 to 50
Cc1ccc(NC(=O)[C@H](CCCCN)NS(=O)(=O)c2ccsc2)cc1 [Compound 399, (S)-6-AMINO-2-(THIOPHENE-3-SULFONYLAMINO)-HEXANOIC ACID P-TOLYLAMIDE] | > 50
Cc1cc2cc(NC(=O)[C@H](Cc3ccc(CN)cc3)NC(=O)Nc3ccc(OCc4ccccc4)cc3)ccc2[nH]1 [Compound 227, (S)-3-(4-AMINOMETHYL-PHENYL)-2-[3-(4-BENZYLOXY-PHENYL)-UREIDO]-N-(2-METHYL-1H-INDOL-5-YL)-PROPIONAMIDE] | < 10
Cc1ccc(NC(=O)[C@H](CCCCN)NC(=O)Nc2cccc3c2CCCC3)cc1 [Compound 78, (S)-6-AMINO-2-[3-(5,6,7,8-TETRAHYDRO-NAPHTHALEN-1-YL)-UREIDO]-HEXANOIC ACID P-TOLYLAMIDE] | > 50
Cc1ccc(NC(=O)C2CCCN2C(=O)OCC2c3ccccc3-c3ccccc32)cc1 [Compound 86, (R)-2-P-TOLYLCARBAMOYL-PYRROLIDINE-1-CARBOXYLIC ACID 9H-FLUOREN-9-YLMETHYL ESTER] | > 50
NCCCC[C@H](NC(=O)NCc1ccccc1)C(=O)Nc1ccc(CN(C(=O)c2ccco2)C2CCCCC2)cc1 [Compound 153, (S)-FURAN-2-CARBOXYLIC ACID {4-[6-AMINO-2-(3-BENZYL-UREIDO)-HEXANOYLAMINO]-BENZYL}-CYCLOHEXYL-AMIDE] | > 50
Cc1ccc(NC(=O)C(CCCCNC(=O)CN)NC(=O)OCC2c3ccccc3-c3ccccc32)cc1 [Compound 176, (S)-[5-(2-AMINO-ACETYLAMINO)-1-P-TOLYLCARBAMOYL-PENTYL]-CARBAMIC ACID 9H-FLUOREN-9-YLMETHYL ESTER] | < 10
Cc1ccc(NC(=O)C(CCC(N)=O)NC(=O)OCC2c3ccccc3-c3ccccc32)cc1 [Compound 382, (R)-(3-CARBAMOYL-1-P-TOLYLCARBAMOYL-PROPYL)-CARBAMIC ACID 9H-FLUOREN-9-YLMETHYL ESTER] | > 50
